Patent publication US9795137B2, “Metalaxyl and prothioconazole cocrystals and methods of making and using” (Bayer CropScience LP, priority 2012, dated 2017)
Values after ≈ are worked out from the molar mass of the structure shown. Like-named read-outs stand apart in the source and are kept apart here.

Tests used:
[1] = water solubility measurements at pH 7.0 in an aspect, cited from earlier work
[2] = Water solubility of saturated solutions at pH 7.0, measured by HPLC; settings: metalaxyl and prothioconazole as separate compounds (0.2 g each in one bottle), 10 mL pH 7.0 buffer, stirred about 12 hours at 20° C.±1° C.
Experimental: A saturated solution of metalaxyl and prothioconazole as separate compounds was prepared by the following procedure: 0.2 grams each of metalaxyl and prothioconazole were weighed and placed into a 0.5 oz bottle. 10 mL of pH 7.0 (Fisher #SB107-500) was added to the bottle. A magnetic stir bar was added to the bottle and the bottle was capped and shaken. The bottle was placed on a magnetic stirrer for about 12 hours at a temperature of 20° C.±1° C. stirring on low.
10 mL of pH 7.0 (Fisher #SB107-500) was added to the bottle. A magnetic stir bar was added to the bottle and the bottle was capped and shaken. The bottle was placed on a magnetic stirrer for about 12 hours in a room at 20° C.±1° C., stirring on low.

COCC(=O)N(c1c(C)cccc1C)C(C)C(=O)OC (racemic) [metalaxyl, N-(2,6-dimethylphenyl)-N-(methoxyacetyl)-DL-alanine methyl ester]
water solubility ([1]; at 22° C.): about 8.4 g/l | solubility at pH 7.0 [2]: 0.62%

OC(Cc1ccccc1Cl)(Cn1nc[nH]c1=S)C1(Cl)CC1 (stereo not shown) [prothioconazole, 2-[2-(1-chlorocyclopropyl)-3-(2-chlorophenyl)-2-hydroxypropyl]-1,2-dihydro-3H-1,2,4-triazole-3-thione]
water solubility ([1]; at 25° C.): 0.61 µg/mL (≈ 1.77 µM) | solubility at pH 7.0 [2]: 0.0002%
